Read-outs that look alike come from different tables or passages of the source.

In assay [1] the target is T1, androgen receptor (AR) (Homo sapiens, UniProt P10275).
T1 sequence (P10275 1-920): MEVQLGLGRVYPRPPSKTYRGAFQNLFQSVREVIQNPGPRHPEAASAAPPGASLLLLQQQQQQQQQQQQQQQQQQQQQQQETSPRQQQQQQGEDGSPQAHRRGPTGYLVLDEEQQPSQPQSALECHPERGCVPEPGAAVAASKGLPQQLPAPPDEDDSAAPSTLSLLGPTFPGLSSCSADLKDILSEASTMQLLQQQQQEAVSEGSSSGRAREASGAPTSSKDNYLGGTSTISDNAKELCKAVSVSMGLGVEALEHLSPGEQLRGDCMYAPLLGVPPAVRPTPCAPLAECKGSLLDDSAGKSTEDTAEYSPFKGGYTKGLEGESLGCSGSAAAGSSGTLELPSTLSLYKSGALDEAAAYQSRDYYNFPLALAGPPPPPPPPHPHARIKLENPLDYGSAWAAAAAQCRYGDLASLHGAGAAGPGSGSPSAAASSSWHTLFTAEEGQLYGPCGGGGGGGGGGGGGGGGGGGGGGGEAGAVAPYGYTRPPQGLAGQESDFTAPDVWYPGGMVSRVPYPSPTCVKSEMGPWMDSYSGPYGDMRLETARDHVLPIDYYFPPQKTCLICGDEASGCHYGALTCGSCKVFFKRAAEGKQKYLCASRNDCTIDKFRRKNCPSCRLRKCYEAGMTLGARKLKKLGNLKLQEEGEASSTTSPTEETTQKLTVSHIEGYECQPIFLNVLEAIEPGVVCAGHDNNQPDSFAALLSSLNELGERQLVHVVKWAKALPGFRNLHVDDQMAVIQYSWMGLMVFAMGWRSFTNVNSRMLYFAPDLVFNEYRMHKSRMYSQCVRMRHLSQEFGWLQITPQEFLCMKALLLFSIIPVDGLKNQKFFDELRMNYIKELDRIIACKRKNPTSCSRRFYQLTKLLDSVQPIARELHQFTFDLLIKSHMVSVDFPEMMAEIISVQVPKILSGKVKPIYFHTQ
The assay can be described thus: MDA-MB-453 Androgen Receptor Transactivation Assay (PSA-Luc reporter, 3 nM DHT). The assay is classed as cell-based. Particulars: MDA-MB-453 cells, antagonism in presence of 3 nM DHT, 48 hour incubation. From the text: Compounds can be tested in a cell based transactivation assay used to measure the antagonism of androgen receptor (AR) transcriptional activity. The transactivation assay provides a means of identifying antagonists that inhibit the effects of the native hormone dihydrotestosterone (DHT). […] The pGL3 PSA-Luc reporter plasmid is comprised of the cDNA for the firefly luciferase gene and the upstream promoter sequences containing the androgen response elements (AREs) of the prostate specific antigen (PSA). This plasmid functions as a reporter for the transcription-modulating activity of the AR. In order to detect antagonists, the transactivation assay is conducted in the presence of constant concentration of the natural AR hormone (DHT) to induce a defined reporter signal. Addition of increasing concentrations of the suspected antagonist will decrease the reporter signal (luciferase activity).
MDA-MB-453 and 22 RV1 cells were maintained in DMEM (Cellgro, Cat. #10-014-CM) or RPMI 1640 (Gibco Cat. #11875-085) respectively and supplemented with 10% FBS (Invitrogen/GIBCO Life Science). Cells were bulk transfected in flasks with 1.3 ug/ml pGL3 PSA-Luc plasmid by using the Lipofectamine 2000 Reagent (Invitrogen, Cat. #11668-019) and serum-free Opti-MEM I media (Invitrogen, Cat #31985-070) according to the manufacturer's optimized conditions. Transfection was conducted at 37° C. with 5% CO2 for 16-18 hours. Following transfection, cells are washed, treated with trypsin, counted, and seeded in a 96-well plate at 30,000 cells per well in DMEM containing 10% Charcoal/Dextran Treated Fetal Bovine Serum (Gibco Cat. #11054-020) for MDA-MB-453 cells or RPMI 1640 (Gibco Cat. #110835) containing 10% FBS (Invitrogen/GIBCO Life Science) for 22 RV1 cells.
Following transfection, cells were incubated in the absence (blank) or presence (control) of 3 nM DHT (Sigma, Cat. #A-8380) and in the presence or absence of the standard antiandrogen bicalutamide or test compounds ranging in concentrations from 10^−10 to 10^−5M. Duplicates were used for each sample. The compound dilutions were performed by the Tecan Genesis (Tecan, Triangle Park, N.C.). After a 48 hour incubation, luciferase activity was measured using the Steady-Glo Luciferase Assay System (Promega, Cat. #E2550) according to manufacturer's specifications and luminescence was measured on a Packard TopCount (PerkinElmer). For each luciferase sample reading, the percent control (in absence of compounds) was calculated as: % Control=100×[averagesample−averageblank]/[averagecontrol−averageblank] Data was plotted and the IC50 value was defined as the concentration of compound that inhibited 50% of the luciferase activity for the controls.
Compounds described herein were tested in the AR transactivation assay described immediately above, using MDA-MB-453 cells.

Assay [2] deals with immature castrated male rats. Kind of assay: Immature Rat Prostate Weight (IRPW) Assay. The assay is classed as in vivo, rat (Sprague-Dawley). Particulars: for response vs control in vivo at 3 mg/kg: Rattus norvegicus, po, 96 h, read-out: IRPW SV/FB (% control); for EC50 (increase in organ weight, VP and SV): dosing for 3 days.

With `C[C@@]12C[C@H](O)[C@]3(CCO[C@H]4[C@@H]3[C@@H]1C(=O)N4c1ccc(C#N)c(C(F)(F)F)c1)O2` (single isomer, unassigned) [Example 3], the IC50 (commonly the concentration needed to halve the response being measured) in assay [1] turned out to be 0.175 µM. Moreover, the response vs control in vivo at 3 mg/kg in assay [2] is 41%.
Taken in the same sequence, the figures for `C[C@]12O[C@@]3(CCO[C@H]4[C@@H]3[C@@H]1C(=O)N4c1cc(F)c(C#N)c(C(F)(F)F)c1)C[C@H]2O` [Example 139, 2-Fluoro-4-((1S,3R,4S,5S,8S,12R)-3-hydroxy-4-methyl-6-oxo-9,13-dioxa-7-azatetracyclo[6.3.1.1^1,4.0^5,12]tridec-7-yl)-6-(trifluoromethyl)benzonitrile] were 0.06 µM and 35%.
Taken in the same sequence, the figures for `C[C@@]12C[C@@H](O)[C@]3(CCO[C@H]4[C@@H]3[C@@H]1C(=O)N4c1ccc(C#N)c(C(F)(F)F)c1)O2` [Example 6, 4-((1R,2R,4R,5S,8S,12R)-2-hydroxy-4-methyl-6-oxo-9,13-dioxa-7-azatetracyclo[6.3.1.1^1,4.0^5,12]tridec-7-yl)-2-(trifluoromethyl)benzonitrile] were 0.281 µM and 37%.
As to `C[C@]12CC[C@H]3[C@@H](CCC4=CC(=O)CC[C@@]43C)[C@@H]1CC[C@@H]2O` [T, testosterone, reference compound], in assay [2] (immature castrated rats), the “EC50 (increase in organ weight, VP and SV)” value is reported as “about 1 mg”.
`COC(=O)N[C@@H]1C[C@@]23CCO[C@H]4[C@@H]2[C@H](C(=O)N4c2ccc(C#N)c(C(F)(F)F)c2)[C@]1(C)O3` [Example 207, Methyl ((1R,3R,4S,5S,8S,12R)-7-(4-cyano-3-(trifluoromethyl)phenyl)-4-methyl-6-oxo-9,13-dioxa-7-azatetracyclo[6.3.1.1^1,4.0^5,12]tridec-3-yl)carbamate]: the 50% inhibitory concentration (IC50) in assay [1] was found to be 0.054 µM. Also, the response vs control in vivo at 3 mg/kg in assay [2] was found to be 37%.
On to `N#Cc1ccc(N2C(=O)[C@@H]3[C@@H]4[C@H]2OCC[C@@]42CC[C@@H]3O2)cc1C(F)(F)F` (single isomer, unassigned) [Example 53], for which the IC50 in assay [1] is 1.2 µM.
With `C[C@@]12O[C@]3(CCO[C@@H]4[C@H]3[C@H]1C(=O)N4c1ccc(C#N)c(C(F)(F)F)c1)C[C@H]2N` [Example 13, 4-((1S,3R,4R,5R,8R,12S)-3-amino-4-methyl-6-oxo-9,13-dioxa-7-azatetracyclo[6.3.1.1^1,4.0^5,12]tridec-7-yl)-2-(trifluoromethyl)benzonitrile], the 50% inhibitory concentration (IC50) in assay [1] was > 7.5 µM.
Regarding `C[C@]12CC[C@@]3(CCO[C@@H]4[C@H]3[C@H]1C(=O)N4c1ccc(C#N)c(C(F)(F)F)c1)O2` [Example 51, 4-((1S,4S,5R,8R,12S)-4-methyl-6-oxo-9,13-dioxa-7-azatetracyclo[6.3.1.1^1,4.0^5,12]tridec-7-yl)-2-(trifluoromethyl)benzonitrile], in assay [1], the IC50 is 1.81 µM.
On the same count and under the same terms, the figure for `N#Cc1ccc(N2C(=O)[C@H]3[C@H]4O[C@]5(CCO[C@@H]2[C@@H]35)C[C@@H]4O)cc1C(F)(F)F` (single isomer, unassigned) [Example 57] is ≥ 7.5 µM.
Take `C#Cc1cc(N2C(=O)[C@H]3[C@H]4[C@@H]2OCC[C@]42C[C@@H](O)[C@@]3(C)O2)ccc1Cl` [Example 145, (1S,3R,4S,5S,8S,12R)-7-(4-chloro-3-ethynylphenyl)-3-hydroxy-4-methyl-9,13-dioxa-7-azatetracyclo[6.3.1.1^1,4.0^5,12]tridecan-6-one]: the IC50 in assay [1] (read-out: IC50) is 1.72 µM.
`C[C@]12C[C@@H](O)[C@@]3(CCO[C@@H]4[C@H]3[C@H]1C(=O)N4c1ccc(C#N)c(Br)c1)O2` [Example 240, 2-Bromo-4-((1S,2R,4S,5R,8R,12S)-2-hydroxy-4-methyl-6-oxo-9,13-dioxa-7-azatetracyclo[6.3.1.1^1,4.0^5,12]tridec-7-yl)benzonitrile]: the IC50 in assay [1] (read-out: IC50) is 6.38 µM.
As to `C[C@]12O[C@@]3(CCO[C@H]4[C@@H]3[C@@H]1C(=O)N4c1cc(Cl)cc(Cl)c1)C[C@H]2O` [Example 149, (1S,3R,4S,5S,8S,12R)-7-(3,5-dichlorophenyl)-3-hydroxy-4-methyl-9,13-dioxa-7-azatetracyclo[6.3.1.1^1,4.0^5,12]tridecan-6-one], the IC50 in assay [1] (read-out: IC50) worked out at 1.1 µM.
As for `C[C@]12O[C@@]3(CCO[C@H]4[C@@H]3[C@@H]1C(=O)N4c1ccc(C#N)c(F)c1)C[C@H]2O` [Example 137, 2-Fluoro-4-((1S,3R,4S,5S,8S,12R)-3-hydroxy-4-methyl-6-oxo-9,13-dioxa-7-azatetracyclo[6.3.1.1^1,4.0^5,12]tridec-7-yl)benzonitrile], the IC50 in assay [1] (read-out: IC50) was 6.24 µM.
As to `C[C@@]12C[C@@H](NS(=O)(=O)C3CC3)[C@]3(CCO[C@H]4[C@@H]3[C@@H]1C(=O)N4c1ccc(C#N)c(C(F)(F)F)c1)O2` [Example 196, N-((1R,2R,4R,5S,8S,12R)-7-(4-Cyano-3-(trifluoromethyl)phenyl)-4-methyl-6-oxo-9,13-dioxa-7-azatetracyclo[6.3.1.1^1,4.0^5,12]tridec-2-yl)cyclopropanesulfonamide], the IC50 in assay [1] was 0.046 µM.
As for `CCC(=O)O[C@H]1CC[C@H]2[C@@H]3CCC4=CC(=O)CC[C@]4(C)[C@H]3CC[C@]12C` [TP, Testosterone Propionate, reference compound], the “potency relative to free T” value in assay [2] (TP versus free T, immature castrated rats) is 10-30 fold. Further, the “EC50 (increase in organ weight, VP and SV)” value in assay [2] (immature castrated rats) is listed as ~0.03 mg.
For the compound `CC[C@]12C[C@@H](O)[C@@]3(CCO[C@@H]4[C@H]3[C@H]1C(=O)N4c1ccc(C#N)c(C(F)(F)F)c1)O2` (single isomer, unassigned) [Example 59], in assay [1], the IC50 is ≥ 7.5 µM.
In the case of `CC[C@@]12O[C@]3(CCO[C@@H]4[C@H]3[C@H]1C(=O)N4c1ccc(C#N)c(C(F)(F)F)c1)C[C@@H]2O` (single isomer, unassigned) [Example 61], in assay [1], the IC50 was ≥ 7.5 µM.
Turning to `CCC(=O)N[C@H]1C[C@@]2(C)O[C@@]13CCO[C@H]1[C@@H]3[C@@H]2C(=O)N1c1ccc(C#N)c(Cl)c1` [Example 214, N-((1R,2S,4R,5S,8S,12R)-7-(3-chloro-4-cyanophenyl)-4-methyl-6-oxo-9,13-dioxa-7-azatetracyclo[6.3.1.1^1,4.0^5,12]tridec-2-yl)propanamide], in assay [1], the IC50 was 5.65 µM.
With `C[C@@]12O[C@]3(CCO[C@@H]4[C@H]3[C@H]1C(=O)N4c1ccc(C#N)c(C(F)(F)F)c1)C[C@H]2N=[N+]=[N-]` [Example 12, 4-((1S,3R,4R,5R,8R,12S)-3-azido-4-methyl-6-oxo-9,13-dioxa-7-azatetracyclo[6.3.1.1^1,4.0^5,12]tridec-7-yl)-2-(trifluoromethyl)benzonitrile], the IC50 in assay [1] is > 7.5 µM.

The record behind these values is patent US8067582B2 (Bristol-Myers Squibb Company, priority 2007, dated 2011).
